The test system of the test is CD30 antigen positive Karpas 299 cells. Description: In vitro cell proliferation assay, Karpas 299 cells (Example 18). It is filed as cell-based.

The term EC50 denotes the concentration needed to bring the measured effect to its halfway point. The low end stands for an effect from little substance, the high end for a need for much substance.

“B-MCvcPABC-MMAE: Brentuximab (B) without light chain extension conjugated to MCvcPABC-MMAE, DAR 3.5 [reference compound]” displayed a half-maximal effective concentration (EC50) of 8 pM.
